In general, MIC refers to the lowest concentration that inhibits growth of the organism. The low end stands for inhibition by little substance, the high end for a need for much substance.

Common to all, as to format: cell-based
For assay [1], the system named is Candida humilis UMY12 (UNIMI collection). Description: disc diffusion test on yeast. The following applies: MHA with 2% glucose, 5120 µg/mL, preliminary tests. The procedure:
Some preliminary tests were also effected to evaluate the activity against eukaryotic microorganisms such as yeasts.
The disc diffusion method was applied again, using the yeast Candida humilis UMY12 (UNIMI collection).
2% glucose was added to the MHA medium, and the concentration of the suspension amounted to about 3×10^6 CFU/mL. The concentration of the chemical compounds amounted to 5120 µg/mL for both compounds.

Assay [2] concerns Staphylococcus aureus ATCC25923. The assay is described as follows: disc diffusion antimicrobial susceptibility test (EUCAST). Conditions: MHA, 1000 to 125 µg/mL, 37°C, 16-20 h. As for the experimental part:
The antimicrobial susceptibility tests were effected by the disc diffusion method as indicated by EUCAST (European Committee on Antimicrobial Susceptibility Testing). The plates were prepared with Mueller Hinton Agar (MHA) medium into which microbial suspensions of Escherichia coli ATCC25922 and Staphylococcus aureus ATCC25923 were inoculated at a concentration of about 2×10^8 CFU/mL. Sterile discs were then placed on each plate and subsequently inoculated with successive concentrations of the two chemical compounds analysed (domiphen bromide and para-bromo domiphen bromide), together with a positive control (chloramphenicol) and a negative control (MH broth). The plates were then incubated at 37°C in aerobiosis for 16-20 h. After incubation, any inhibition zone due to the potential antimicrobial activity was measured with a ruler, and the activities of the two molecules were compared. In Figure 8 and Figure 9: • TQ= concentration of compound amounting to 1000 µg/mL • 1:2= concentration of compound amounting to 500 µg/mL • 1:4= concentration of compound amounting to 250 µg/mL • 1:8= concentration of compound amounting to 125 µg/mL • CHL= chloramphenicol (antibiotic) • CNEG= negative control (MHB).
Background: Agar diffusion results depend on both activity and mobility in agar.

In assay [3] the test system is Escherichia coli ATCC25922. The description is as above. Conditions: MHA, 1000 to 125 µg/mL, 37°C, 16-20 h, compared with domiphen bromide. As for the experimental part: The antimicrobial susceptibility tests were effected by the disc diffusion method as indicated by EUCAST (European Committee on Antimicrobial Susceptibility Testing). The plates were prepared with Mueller Hinton Agar (MHA) medium into which microbial suspensions of Escherichia coli ATCC25922 and Staphylococcus aureus ATCC25923 were inoculated at a concentration of about 2×10^8 CFU/mL. Sterile discs were then placed on each plate and subsequently inoculated with successive concentrations of the two chemical compounds analysed (domiphen bromide and para-bromo domiphen bromide), together with a positive control (chloramphenicol) and a negative control (MH broth). The plates were then incubated at 37°C in aerobiosis for 16-20 h. After incubation, any inhibition zone due to the potential antimicrobial activity was measured with a ruler, and the activities of the two molecules were compared. In Figure 6 and Figure 7: • TQ= concentration of compound amounting to 1000 µg/mL 1:2= concentration of compound amounting to 500 µg/mL • 1:4= concentration of compound amounting to 250 µg/mL • 1:8= concentration of compound amounting to 125 µg/mL • CHL= chloramphenicol (antibiotic) • CNEG= negative control (MHB).

In another assay the test system is Bacillus cereus DSM31. The assay is described as follows: MIC evaluation, broth microdilution method (CLSI). The following applies: summary statement in words. From the text: (§1) Tests were then effected on the two bacteria analysed with the agar diffusion test and on two other microorganisms such as Pseudomonas aeruginosa DSM 22644 (PAO1) and Bacillus cereus DSM31 to evaluate the Minimum Inhibitory Concentration (MIC), i.e. the lowest concentration of compound able to inhibit the growth of a microorganism. The method used was the broth microdilution method (CLSI - Clinical and Laboratory Standards Institute). Briefly, the procedure involved the preparation of serial dilutions of the antimicrobial agent (256 to 0.125 mg/1) distributed in a 96-well microtiter plate (microdilution). Each well was then inoculated with the reference microbial strain at the concentration of about […] (0.5 McFarlands). The 96-well microtiter plates were then incubated at 37°C.
For orientation: Dilution methods test growth across graded concentrations, often in twofold steps.

Assay [4] concerns Pseudomonas aeruginosa DSM 22644 (PAO1). The assay is described as follows: MIC evaluation, broth microdilution method (CLSI). Conditions: summary statement in words.
Source text: as §1

A further assay relates to S. aureus. The assay is described as follows: MIC evaluation, broth microdilution method (CLSI). Conditions: Staphylococcus aureus, 37°C.
Source text: as §1

The next assay relates to E. coli. The assay is described as follows: MIC evaluation, broth microdilution method (CLSI). The following applies: Escherichia coli, 37°C.
Source text: as §1

As for `CCCCCCCCCCCC[N+](C)(C)CCOc1ccc(Br)cc1` [compound of formula (Ia), (dodecyldimethyl-2-p-bromophenoxyethyl)ammonium bromide], the “antimicrobial activity against yeast” value in assay [1] is on record as “almost the same antimicrobial activity”. Moreover, the “antimicrobial activity (inhibition zone) towards S. aureus” value in assay [2] is given as “exhibits antimicrobial activity”. Moreover, in assay [3], the “antimicrobial activity (inhibition zone) towards E. coli” value is given as “comparable with that of domiphen bromide”. Besides, the “activity compared with domiphen against Bacillus cereus” value in the assay on Bacillus cereus DSM31 is recorded as “more active than domiphen”. In addition, in assay [4], the “activity compared with domiphen against Pseudomonas aeruginosa” value is given as “more active than domiphen”. The MIC against S. aureus worked out at 1 µg/mL; with E. coli, 8 µg/mL.
Consider `CCCCCCCCCCCC[N+](C)(C)CCOc1ccccc1` [domiphen bromide, Domiphen bromide, reference compound], for which the “antimicrobial activity against yeast” value in assay [1] is listed as “almost the same antimicrobial activity”. For the same compound, the MIC against S. aureus came out at 1 µg/mL; in the assay with E. coli, 8 µg/mL.

For the origin of these results see patent EP3681856B1, “COMPOUNDS HAVING PRESERVATIVE, ANTIMICROBIAL AND ANTISEPTIC ACTIVITY” (Universita' degli Studi di Milano, priority 2017, dated 2019).
